Data set [1] deals with nitrification of ammonium nitrogen in soil. Nature of the data set: Soil nitrification inhibition test (Mountainview silt loam, banded). As to conditions: for % inhibition (nitrification) / Net mg NO2N / Net mg NO3N: 25° C, 410 mg urea + 41 mg inhibitor; for Nitrite accumulation in the soil: during the 5 weeks incubation, greater than with dicyandiamide. Here is the method: Embodiment 2: The N-Halamine compounds were tested for nitrification inhibition using the soil testing procedure described below.
Mountainview silt loam soil was screened through a 2 mm sieve. Plexiglas containers (8×8×6 cm) were packed half full with the soil and packed to a bulk density of 1.0 g/cm^3 and wetted to field capacity (approximately 20 weight percent moisture). The urea 410 mg per container) and inhibitor (41 mg per container) were added in a narrow band (0.5 cm wide X 6 cm long), and additional soil was added to fill the containers. The total amount of dry soil added was 384 g. The containers were incubated at 25° C. During incubation the containers were checked periodically for moisture loss and additional water added as needed to maintain moisture levels.
The individual containers were removed from the incubator at 1, 2, 3, 4, and 5 week intervals. After removal from the incubator the contents of the container were transferred to a plastic bag and thoroughly mixed. A 10-g sample of soil (dry basis) was taken from the bag and extracted with 100 ml of 2 N KCL. The extract was filtered through Whatman #41 filter paper and refrigerated until analyzed. Samples were analyzed for NO3-N- NO2-N- and urea-N using a colorimetric procedure. Some samples also were analyzed for NH4-N.
The percent nitrification inhibition was calculated according to the method of Bundy and Bremner [G. L. Bundy and J. M. Bremner, Soil Sci. Soc. Am. Proc. 37, 396-398 (1973)]
% nitrification inhibition=[(C-S)/C]×100
where C=net amount of NO3-N produced in the control (no inhibitor added), and S=net amount of NO3-N produced in the inhibitor treated sample.
^a Concentrations are in net mg/container. All containers had 384 g
soil (dry), 410 mg urea (188.6 mg N) and 41 mg inhibitor. Samples were
extracted 10 g → 100 mls 2N KCl. The formulas used for calculation
where C = net NO3N produced in control (no inhibitor), S = net
NO3N produced in inhibitor treated sample, net NO3N =
(NO3N) - (soil NO3N), and net NO2N = (NO2N) - (soil
NO2N). Values are averages of two replicate samples.

Data set [2] concerns soil urease (urease-active Hastings silt loam soil). Nature of the data set: Banded soil system urease inhibition test (Hastings silt loam). As to conditions: 410 mg urea + 41 mg inhibitor. Here is the method: Embodiment 1: Urease activity of inhibitor test compounds may be evaluated either in aqueous or in soil systems. When aqueous systems are used, urea plus a test compound with possible urease inhibition activity and relatively pure urease enzyme are incubated together to determine the effects of the test compound on urease-catalyzed hydrolysis of urea. When soil systems are used, urea and the test compound are added to moist soil, and the urease enzyme is supplied from the soil. The main disadvantage of using soil systems is that the true activity of test compounds may be masked because of reactions between the test compound and soil. Thus, basic studies for understanding chemical structure-activity relationships are usually done in aqueous systems.
Soil System Test Procedure: The soil system test procedure used was a modification of the previous procedures of other researchers L. A. Douglas and J. M. Bremner, Soil Biol. Biochem. 3, 309-315 (1971) and J. M. Bremner and R. L. Mulvaney, "Urease Activity in Soils," Soil Enzymes 5, R. G. Burns, editor, Academic Press, 149-195 (1978)]. In this modified procedure powdered mixtures of urea and test compounds were applied in narrow bands in the soil rather than being mixed throughout the soil. The banded configuration also results in concentration gradients of urea, urea hydrolysis products, test compounds, and test compound decomposition products similar to those in the immediate vicinity of urea granules containing the test compounds. Another advantage of the banded configuration compared with mixing throughout the soil is that slightly soluble test compounds can be easily band applied, whereas it is difficult to achieve a known degree of mixing of a small quantity of slightly soluble test compound with soil. The banded configuration also enables testing for urease inhibition under realistic soil conditions prior to the development of techniques for cogranulating a wide range of test compounds with urea.
A detailed description of the banded soil testing procedure follows. Urease-active soil (Hastings silt loam) was moistened to a moisture content of 20 percent dry weight basis) and preincubated at room temperature for two days. Plexiglas containers (6×6×6 cm) were half filled with soil and packed to a bulk density of 1.0 g/cm . Urea (410 mg) or urea (410 mg) plus inhibitor (41 mg, thoroughly mixed with the urea) was distributed in a narrow band about 0.5 cm wide and 6 cm long on the soil surface. The containers then were filled with soil, again packing to a bulk density of 1.0 g/cm^3. The containers were incubated at 25° C. for the desired reaction period, after which the containers were frozen to about -5° C. to stop urea hydrolysis. Immediately prior to extracting the remaining urea from the soil, said soil was allowed to thaw. Soil from each container was thoroughly mixed, and a 10-g sample was extracted with 100 ml of 2 M KCl containing phenylmercuric acetate to prevent urea hydrolysis during handling [L. A. Douglas and J. M. Bremner, Soil. Sci. Soc. Am. Proc. 34, 859-862 (1970)]. Urea in the extracts was determined colorimetrically as a measure of unhydrolyzed urea and the results expressed as percent unhydrolyzed urea-N.
^a The plexiglas containers measured 6 × 6 × 6 cm.
Hastings silt loam soil was utilized and packed to a bulk density of 1
gm/cm^3 dry basis. The soil was wet to near field capacity (20%
moisture) and 260 g of wetted soil (216 g dry soil) was added per
container. The containers were packed half full, urea and inhibitor were
added, and the remaining soil was added. The amount of urea added = 410 m

The structures appear in SMILES notation. Values joined by “and” are separate entries in the source; they are usually repeats but may differ in a detail not shown here. Equal entries are not always repeated.

Regarding `N#CN=C(N)N` [Dicyandiamide, dicyandiamide, reference compound], the “% inhibition (nitrification)” value in data set [1] (1 week) was 78.2%; in data set [1] (2 weeks), 88.6%; in data set [1] (3 weeks), 87.4%; in data set [1] (4 weeks) it was 87.4%; in data set [1] (5 weeks), 90.0%; in data set [1] (5 weeks, listed as dicyandiamide), 90%. For the same compound, the “Net mg NO2N” value is reported as 0.17 mg/container in data set [1] (1 week); 0.19 mg/container in data set [1] (2 weeks); 0.01 mg/container in data set [1] (3 weeks); 0.01 mg/container in data set [1] (4 weeks); -0.02 mg/container in data set [1] (5 weeks). The “Net mg NO3N” value in data set [1] (1 week) is given as 4.6 mg/container; in data set [1] (2 weeks), 17.7 mg/container; in data set [1] (3 weeks), 22.7 mg/container; in data set [1] (4 weeks), 22.7 mg/container; in data set [1] (5 weeks), 18.4 mg/container.

Take `CC1(C)COC(=O)N1Br` [IB, 3-bromo-4,4-dimethyl-2-oxazolidinone]: the “% inhibition (nitrification)” value in data set [1] (1 week) is 100.0%; in data set [1] (1 week, listed as 3-bromo-4,4-dimethyl-2-oxazolidinone), 100%; in data set [1] (2 weeks), 100.0%; in data set [1] (3 weeks), 100.0%; in data set [1] (4 weeks) it was 100.0%; in data set [1] (5 weeks) it was 99.6%. Moreover, the “Net mg NO2N” value is -0.02 mg/container in data set [1] (1 week); 0.06 mg/container in data set [1] (2 weeks); 0.12 mg/container in data set [1] (3 weeks); 0.52 mg/container in data set [1] (4 weeks); 2.64 mg/container in data set [1] (5 weeks). Besides, the “Net mg NO3N” value in data set [1] (1 week) is recorded as 0.0 mg/container; in data set [1] (2 weeks), 0.0 mg/container; in data set [1] (3 weeks), 0.0 mg/container; in data set [1] (4 weeks), 0.0 mg/container; in data set [1] (5 weeks), 0.8 mg/container. Moreover, the “Nitrite accumulation in the soil” value in data set [1] is listed as “well within plant tolerance levels”. Further, the “% unhydrolyzed urea-N” value is 65.51% and 65.5% in data set [2] (3 days incubation at 25° C); 10.05% and 10.0% in data set [2] (6 days incubation at 25° C). Moreover, the figures for the “PPM urea-N” value in data set [2] (3 days incubation at 25° C) and in data set [2] (6 days incubation at 25° C) were 58.0 PPM and 8.9 PPM, respectively.

For `CC1(C)COC(=O)N1Cl` [I, 3-chloro-4,4-dimethyl-2-oxazolidinone], the “% inhibition (nitrification)” value in data set [1] (1 week) is reported as 74.4%; in data set [1] (2 weeks) it was 68.9%; in data set [1] (3 weeks), 4.9%; in data set [1] (4 weeks) it was -2.8%; in data set [1] (5 weeks) it was -1.5%; in data set [1] (5 weeks, listed as 3-chloro-4,4-dimethyl-2-oxazolidinone), 0%. Also, the “Net mg NO2N” value in data set [1] (1 week) is 0.28 mg/container; in data set [1] (2 weeks), 0.49 mg/container; in data set [1] (3 weeks), 0.07 mg/container; in data set [1] (4 weeks), 0.02 mg/container; in data set [1] (5 weeks), -0.01 mg/container. Further, the “Net mg NO3N” value in data set [1] (1 week) was determined as 5.4 mg/container; in data set [1] (2 weeks), 48.4 mg/container; in data set [1] (3 weeks) it was 171.3 mg/container; in data set [1] (4 weeks), 185.5 mg/container; in data set [1] (5 weeks) it was 187.4 mg/container. The nitrification inhibition effect result in data set [1] (after three weeks) is reported as “almost completely exhausted”. The “% unhydrolyzed urea-N” value in data set [2] (3 days incubation at 25° C) was 82.45% and 82.4%; in data set [2] (6 days incubation at 25° C) it was 56.47% and 56.5%. Also, the entries for the “PPM urea-N” value in data set [2] (3 days incubation at 25° C) and in data set [2] (6 days incubation at 25° C) were 73.0 PPM and 50.0 PPM, respectively.

With `CC1(C)N(Br)C(=O)N(Br)C1(C)C` [AB, 1,3-dibromo-4,4,5,5-tetramethyl-2-imidazolidinone], the “% inhibition (nitrification)” value came out at 100.0% in data set [1] (1 week); 100.0% in data set [1] (2 weeks); 100.0% in data set [1] (3 weeks); 100.0% in data set [1] (4 weeks); 98.3% in data set [1] (5 weeks). Moreover, the “Net mg NO2N” value was -0.05 mg/container in data set [1] (1 week); 0.04 mg/container in data set [1] (2 weeks); 0.03 mg/container in data set [1] (3 weeks); 0.82 mg/container in data set [1] (4 weeks); 2.63 mg/container in data set [1] (5 weeks). Besides, the “Net mg NO3N” value is reported as 0.0 mg/container in data set [1] (1 week); 0.0 mg/container in data set [1] (2 weeks); 0.0 mg/container in data set [1] (3 weeks); 0.0 mg/container in data set [1] (4 weeks); 3.1 mg/container in data set [1] (5 weeks). Also, in data set [1], the “Nitrite accumulation in the soil” value is listed as “well within plant tolerance levels”. In addition, the “% unhydrolyzed urea-N” value was 70.59% and 70.6% in data set [2] (3 days incubation at 25° C); 15.02% and 15.0% in data set [2] (6 days incubation at 25° C). Further, the results for the “PPM urea-N” value in data set [2] (3 days incubation at 25° C) and in data set [2] (6 days incubation at 25° C) were 62.5 PPM and 13.3 PPM, respectively.
